These results are taken from patent US12552767B2, “3-heteroaryl pyrrolidine and piperidine orexin receptor agonists” (Merck Sharp & Dohme LLC, priority 2020, dated 2026).

The target of this test is T1, human OX2R (Homo sapiens, UniProt O43614).
T1 construct: expressed in transfected cells; host or cells: CHO (Chinese hamster ovary) cells, grown under G418 selection
T1 sequence (O43614 1-444): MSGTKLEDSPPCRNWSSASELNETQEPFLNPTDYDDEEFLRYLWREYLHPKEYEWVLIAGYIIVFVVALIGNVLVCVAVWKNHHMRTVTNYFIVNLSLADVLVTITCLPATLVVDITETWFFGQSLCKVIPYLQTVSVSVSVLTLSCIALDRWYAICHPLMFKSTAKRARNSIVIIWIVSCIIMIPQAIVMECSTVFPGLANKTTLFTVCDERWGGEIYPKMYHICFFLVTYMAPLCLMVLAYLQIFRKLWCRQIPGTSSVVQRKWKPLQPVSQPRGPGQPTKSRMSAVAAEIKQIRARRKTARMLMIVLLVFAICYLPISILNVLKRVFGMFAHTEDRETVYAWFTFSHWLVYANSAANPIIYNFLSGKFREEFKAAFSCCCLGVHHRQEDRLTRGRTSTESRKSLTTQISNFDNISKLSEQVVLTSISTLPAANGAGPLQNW
The test is described as follows: IP-One (IPOne) orexin receptor agonist assay in CHO cells expressing human OX2R. Format: cell-based. The note with it: for pEC50: CHO cells expressing human OX2R, IP-One IP-1 detection, 2 hours incubation, four parameter logistic fit, read-out: OX2R Potency, EC50; for % of reference agonist maximal effect: human OX2R, percentage of sample raw value/mean max effect (reference compound at 1 uM with 100% activity). The method in brief: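 CHO cells stably expressing human OX2R were stimulated with compound (10-point ½-log dilutions) for 2 h at 37 °C. IP-1 accumulation was read by HTRF (IP-One, 665/620 nm). EC50 from a four-parameter fit; % effect relative to 1 μM reference agonist control.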

pEC50: −log10 of the molar value.

For `CCNC(=O)N1CCCC(c2nc[nH]n2)C1CO[C@H]1CC[C@@H](C(C)C)CC1` (single isomer, unassigned) [Example 63, N-ethyl-2-((((CIS)-4-isopropylcyclohexyl)oxy)methyl)-3-(1H-1,2,4-triazol-3-yl)piperidine-1-carboxamide], the pEC50 (usually the negative decadic logarithm of the EC50, by convention in mol/L) was 6.48 and the “% of reference agonist maximal effect” value is 100.2%.
The corresponding values for `COC(=O)N1CCCC(c2nc(O)sc2Cl)C1COC1CCC(c2ccccc2)CC1` (single isomer, unassigned) [Example 67, Methyl 3-(5-chloro-2-hydroxythiazol-4-yl)-2-(((4-phenylcyclohexyl)oxy)methyl)piperidine-1-carboxylate] are 6.64 and 99.9%.
In the case of `COC(=O)N1CCCC(c2nc(O)sc2Cl)C1COC1CCC(c2ccccc2)CC1` (single isomer, unassigned) [Example 68, Methyl 3-(5-chloro-2-hydroxythiazol-4-yl)-2-(((4-phenylcyclohexyl)oxy)methyl)piperidine-1-carboxylate], the pEC50 was 5.16 and the “% of reference agonist maximal effect” value amounted to 27.6%.
As for `O=C(C1CC1)N1CCC[C@H](c2cc[nH]n2)[C@@H]1CO[C@H]1CC[C@@H](c2ccccc2)CC1` (single isomer, unassigned) [Example 71, cyclopropyl((CIS)-2-((((CIS)-4-phenylcyclohexyl)oxy)methyl)-3-(1H-pyrazol-3-yl)piperidin-1-yl)methanone], the pEC50 is 6.34 and the “% of reference agonist maximal effect” value was 82.9%.
In the case of `CC[C@H]1C[C@@H]1C(=O)N1CCC[C@H](c2cc[nH]n2)[C@@H]1COC1CCC(c2ccccc2)CC1` (stereo in doubt) [Example 90, 5-((CIS)-1-((TRANS)-2-ethylcyclopropane-1-carbonyl)-2-((((CIS)-4-phenylcyclohexyl)oxy)methyl)piperidin-3-yl)-1H-pyrazol-2-ium 2,2,2-trifluoroacetate], the pEC50 is 5.95 and the “% of reference agonist maximal effect” value worked out at 90.7%.
`COC(=O)N1CCC[C@H](c2n[nH]cc2C)[C@@H]1COC1CC=C(c2cccc(F)c2)CC1` (stereo partly drawn) [Example 13, methyl (CIS)-2-((((S)-3′-fluoro-2,3,4,5-tetrahydro-[1,1′-biphenyl]-4-yl)oxy)methyl)-3-(4-methyl-1H-pyrazol-3-yl)piperidine-1-carboxylate]: the pEC50 is 5.32 and the “% of reference agonist maximal effect” value stood at 84.6%.
Turning to `CCNC(=O)N1CCC[C@H](c2cc[nH]n2)[C@@H]1CO[C@H]1CC[C@@H](c2ccccc2)CC1` [Example 17, (2R,3S)-N-ethyl-2-((((CIS)-4-phenylcyclohexyl)oxy)methyl)-3-(1H-pyrazol-3-yl)piperidine-1-carboxamide], the negative logarithm of the EC50 (pEC50) was 7.56 and the “% of reference agonist maximal effect” value is given as 100.1%.
For `CCNC(=O)N1CCC[C@@H](c2cc[nH]n2)[C@H]1CO[C@H]1CC[C@@H](c2ccccc2)CC1` [Example 19, (2S,3R)-N-ethyl-2-((((CIS)-4-phenylcyclohexyl)oxy)methyl)-3-(1H-pyrazol-3-yl)piperidine-1-carboxamide], the negative logarithm of the EC50 (pEC50) is 5.32 and the “% of reference agonist maximal effect” value came to 63.1%.
On to `COC(=O)N1CCCC(c2ccn[nH]2)C1CO[C@H]1CC[C@@H](c2c(F)ccc(F)c2F)CC1` (stereo partly shown) [Example 29], for which the negative-log EC50 (pEC50) is 5.87 and the “% of reference agonist maximal effect” value turned out to be 81.4%.
The corresponding values for `CCNC(=O)N1CCCC(c2ccn[nH]2)C1CO[C@H]1CC[C@@H](c2c(F)ccc(F)c2F)CC1` (stereo partly shown) [Example 33] are 7.33 and 100.3%.
`O=C(NCC(F)(F)F)N1CCCC(c2ccn[nH]2)C1CO[C@H]1CC[C@@H](c2c(F)ccc(F)c2F)CC1` (stereo partly shown) [Example 34]: the negative logarithm of the EC50 (pEC50) was 7.75 and the “% of reference agonist maximal effect” value is given as 99.9%.
For `O=C(OCC(F)F)N1CCCC(c2ccn[nH]2)C1CO[C@H]1CC[C@@H](c2c(F)ccc(F)c2F)CC1` (stereo partly drawn) [Example 35, 2,2-Difluoroethyl 3-(1H-pyrazol-5-yl)-2-((((CIS)-4-(2,3,6-trifluorophenyl)cyclohexyl)oxy-)methyl)piperidine-1-carboxylate], the pEC50 is 6.27 and the “% of reference agonist maximal effect” value is 97.9%.
`COC(=O)N1[C@H](C)CC(c2[nH]ncc2C)[C@@H]1CO[C@H]1CC[C@@H](c2ccccc2)CC1` (stereo partly drawn) [Example 36, Methyl (2R,5R)-5-methyl-3-(4-methyl-1H-pyrazol-5-yl)-2-((((CIS)-4-phenylcyclohexyl)oxy)methyl)pyrrolidine-1-carboxylate]: the pEC50 is 5.99 and the “% of reference agonist maximal effect” value is given as 96.3%.
For `COC(=O)N1[C@H](C)CC(c2ccn[nH]2)[C@@H]1CO[C@H]1CC[C@@H](c2ccccc2)CC1` (stereo partly drawn) [Example 37, Methyl (2R,5R)-5-methyl-2-((((CIS)-4-phenylcyclohexyl)oxy)methyl)-3-(1H-pyrazol-5-yl)pyrrolidine-1-carboxylate], the pEC50 is 5.29 and the “% of reference agonist maximal effect” value was determined as 85.3%.
The matching figures for `CCNC(=O)N1C(C)CCC(c2ccn[nH]2)C1COC1CCC(C(C)C)CC1` (stereo not shown) [Example 38, N-ethyl-2-(((4-isopropylcyclohexyl)oxy)methyl)-6-methyl-3-(H-pyrazol-5-yl)piperidine-1-carboxamide]: 6.62 and 95.0%.
Turning to `CCc1c[nH]nc1[C@@H]1CCCN(C(=O)OC)[C@@H]1CO[C@H]1CC[C@@H](c2ccccc2)CC1` [Example 44, (2S,3R)-3-(4-ethyl-1H-pyrazol-3-yl)-2-((((CIS)-4-phenylcyclohexyl)oxy)methyl)piperidine-1-carboxylate], the pEC50 was under 5.00 and the “% of reference agonist maximal effect” value is listed as 9.5%.
Take `COC(=O)N1CCC[C@H](c2n[nH]cc2CO)[C@@H]1CO[C@H]1CC[C@@H](c2ccccc2)CC1` [Example 53]: the pEC50 was 6.98 and the “% of reference agonist maximal effect” value is 100.5%.
In the case of `COC(=O)N1CCC[C@@H](c2n[nH]cc2C(F)F)[C@H]1CO[C@H]1CC[C@@H](c2ccccc2)CC1` [Example 56, Methyl (2S,3R)-3-(4-(difluoromethyl)-pH-pyrazol-3-yl)-2-((((CIS)-4-phenylcyclohexyl)oxy)methyl) piperidine-1-carboxylate], the pEC50 was 5.51 and the “% of reference agonist maximal effect” value stood at 66.9%.
The corresponding values for `C[C@H]1C[C@H]1C(=O)N1CCC[C@H](c2cc[nH]n2)[C@@H]1COC1CCC(c2ccccc2)CC1` (stereo partly drawn) [Example 69, ((CIS)-2-methylcyclopropyl)((2R,3S)-2-((((1s,4S)-4-phenylcyclohexyl)oxy)methyl)-3-(1H-pyrazol-3-yl)piperidin-1-yl)methanone] are 6.56 and 99.2%.
Consider `COCC[C@H](N)C(=O)N1CCC[C@H](c2cc[nH]n2)[C@@H]1COC1CCC(C(C)C)CC1` (stereo partly drawn) [Example 72, (S)-2-amino-1-((CIS)-2-((((CIS)-4-isopropylcyclohexyl)oxy)methyl)-3-(1H-pyrazol-3-yl)piperidin-1-yl)-4-methoxybutan-1-one], for which the pEC50 was 5.51 and the “% of reference agonist maximal effect” value is given as 99.5%.
